The text below walks through data of patent US6399662B1, “Method and composition for the treatment of diarrhea and gastrointestinal spasms” (University of Florida, priority 2000, dated 2002).

Structures can show the parent of a compound that is named as a salt.

Data set [1] relates to stress-induced irritable bowel syndrome in rats. Nature of the data set: Stress-induced irritable bowel syndrome in rats. The following applies: for stool output: 30 min before stress, 6-h collection period; for % reduction (stool output): vs control (0 mg/kg), (1.0-T/C) × 100. It counts as in vivo, rat (Sprague-Dawley). As for the experimental part:
Male Sprague-Dawley rats (200-350 g, Harlan Sprague-Dawley, Indianapolis, Ind.) were housed in hanging wire cages in a temperature- and humidity-controlled room with a 12hour light/dark cycle; the animals were fasted overnight (unless non-fasted rats were utilized in experiments involving PO administration) and allowed free access to water. Animal care and experimental procedures were approved by the Institutional Animal Care and Use Committee. A typical experiment involved 20 rats: 5 untreated controls and 5 pretreated with polyamine analogues at each of three doses as either a SC injection or a PO gavage 30 min prior to commencement of the stress. All animals were then housed in individual polycarbonate cages containing a clear 70×50 mm Pyrex crystallization dish inverted in the center. To begin the stress, water was added to each cage to within 0.5 cm of the top of the Pyrex dish. The fecal output of the animals was recorded at 30-min intervals for a 6-h period, during which they received no food or water. Stool output was expressed as the number of fecal pellets excreted over the 6-h collection period. Percent reduction was calculated by dividing the mean value from the treated animals (T) by the mean value from the control animals (C), subtracting the resulting quotient from 1.0, and multiplying by 100 [i.e., (1.0−T/C)×100].

The subject of data set [2] is castor oil-induced diarrhea in rats. Nature of the data set: Castor oil-induced diarrhea in rats. The following applies: for weight loss: 30 min before castor oil 5 mL/kg, 6-h period; for stool output: 30 min before castor oil, 6-h collection period; for % reduction (weight loss) / % reduction (stool output): vs control (0 mg/kg); for % reduction (weight loss): (1.0-T/C) × 100. It counts as in vivo, rat (Sprague-Dawley). The protocol:
Male Sprague-Dawley rats (350-400 g, Harlan Sprague-Dawley, Indianapolis, Ind.) were fasted overnight in hanging wire cages and allowed free access to water. A typical experiment involved 20 rats: 5 untreated controls and 5 pretreated with polyamine analogues at each of three doses (typically equivalent on a molar basis to 1, 5, 10, or 25 mg/kg of DEHSPM) as either a sc injection or a po gavage 30 min prior to castor oil. All animals were then challenged with castor oil (purchased from a local drugstore) as a gastric gavage of 5 mL/kg of body weight at t=0 and monitored for the onset and duration of diarrhea at 30-min intervals for a 6-h period during which they received no food or water (Eaker, E. Y.; Bixler, G. B.; Mathias, J. R., J. Pharm Exp. Ther. 1988, 246, 786-789). Onset of diarrhea for the control rats was between 30 and 90 min and lasted for at least 6 h. The animal weight and stool weight were recorded at 2, 4, and 6 h.

Another data set relates to small intestine. The following applies: rats; previously reported; cited from earlier work.
The conditions of data set [3]: dog; compared with 2-3 weeks in mice; cited from earlier work.
The conditions of data set [4]: mice; HSPM formed by N-deethylation of DEHSPM; cited from earlier work.
The mark [5] stands for this setting: sc 0.03125 mg/kg (0.0726 μmol/kg).

For the compound `CCNCCCN[C@H]1CC[C@H](NCCCNCC)CC1` [CHX(3,4,3)-trans, N,N′-Bis[3-(ethylamino)propyl]-trans-1,4-cyclohexanediamine tetrahydrochloride], in data set [1] (oral, doses ≧5 mg/kg, P≦0.001), the “fecal output after oral administration (in words)” value is reported as “diminished fecal output”. Besides, the “stool output” value is 5.4 ± 2.1 number of fecal pellets in data set [1] (setting [5]); 2.2 ± 1.3 number of fecal pellets in data set [1] (sc 0.0625 mg/kg (0.145 μmol/kg)); 0.6 ± 0.9 number of fecal pellets in data set [1] (sc 0.125 mg/kg (0.29 μmol/kg)); 0 ± 0 number of fecal pellets in data set [1] (sc 0.25 mg/kg (0.58 μmol/kg)); 0 ± 0 number of fecal pellets in data set [1] (sc 0.5 mg/kg (1.16 μmol/kg)); 0 ± 0 number of fecal pellets in data set [1] (sc 0.99 mg/kg (2.3 μmol/kg)). Also, the stool output in data set [2] (sc 0.0078 mg/kg) is reported as 3.6 ± 1.3 g of stool excreted per 350 g of rat weight; in data set [2] (sc 0.0156 mg/kg), 0.4 ± 0.9 g of stool excreted per 350 g of rat weight; in data set [2] (sc 0.03125 mg/kg), 0 ± 0 g of stool excreted per 350 g of rat weight; in data set [2] (sc 0.125 mg/kg), 0 ± 0 g of stool excreted per 350 g of rat weight; in data set [2] (sc 0.25 mg/kg) it was 0 ± 0 g of stool excreted per 350 g of rat weight; in data set [2] (sc 0.5 mg/kg), 0 ± 0 g of stool excreted per 350 g of rat weight. The stool output in data set [2] (sc 0.625 mg/kg (0.145 μmol/kg)), in data set [2] (sc 0.99 mg/kg), in data set [2] (sc 4.97 mg/kg) and in data set [2] (sc 24.87 mg/kg) was 0 ± 0 g of stool excreted per 350 g of rat weight in each case. Further, the “% reduction (stool output)” value in data set [1] (sc 0.03125 mg/kg) is on record as 52.2%; in data set [1] (sc 0.0625 mg/kg), 80.5%; in data set [1] (sc 0.125 mg/kg), 94.7%; in data set [1] (sc 0.25 mg/kg) it was 100%; in data set [1] (sc 0.5 mg/kg), 100%; in data set [1] (sc 0.99 mg/kg), 100%. The “% reduction (stool output)” value is recorded as 92% in data set [2] (sc 0.0156 mg/kg); 100% in data set [2] (sc 0.03125 mg/kg); 100% in data set [2] (sc 0.125 mg/kg); 100% in data set [2] (sc 0.25 mg/kg); 100% in data set [2] (sc 0.5 mg/kg); 100% in data set [2] (sc 0.625 mg/kg (0.145 μmol/kg)). For the same compound, the “% reduction (stool output)” value in data set [2] (sc 0.99 mg/kg), in data set [2] (sc 4.97 mg/kg) and in data set [2] (sc 24.87 mg/kg) was 100% throughout. The “reduction in fecal output (in words)” value in data set [1] (sc, doses ranging from 0.03 mg/kg to 0.99 mg/kg, all dose levels, P<0.001) is on record as “significant reduction in fecal output”. Besides, the weight loss in data set [2] (sc 0.0078 mg/kg (0.0181 μmol/kg)) is on record as 8.8 ± 1.2 g of weight lost per 350 g of rat weight; in data set [2] (sc 0.0156 mg/kg (0.036 μmol/kg)), 3.1 ± 1.2 g of weight lost per 350 g of rat weight; in data set [2] (setting [5]), 4.2 ± 1.7 g of weight lost per 350 g of rat weight; in data set [2] (sc 0.125 mg/kg (0.29 μmol/kg)), 4.1 ± 0.7 g of weight lost per 350 g of rat weight; in data set [2] (sc 0.25 mg/kg (0.58 μmol/kg)), 2.7 ± 0.7 g of weight lost per 350 g of rat weight; in data set [2] (sc 0.5 mg/kg (1.16 μmol/kg)), 2.9 ± 0.1 g of weight lost per 350 g of rat weight. Further, the weight loss in data set [2] (sc 0.625 mg/kg (0.145 μmol/kg)) was 3.7 ± 0.8 g of weight lost per 350 g of rat weight; in data set [2] (sc 0.99 mg/kg (2.3 μmol/kg)) it was 2.7 ± 1.3 g of weight lost per 350 g of rat weight; in data set [2] (sc 4.97 mg/kg (11.6 μmol/kg)), 1.6 ± 1.1 g of weight lost per 350 g of rat weight; in data set [2] (sc 24.87 mg/kg (57.8 μmol/kg)) it was 0.8 ± 0.7 g of weight lost per 350 g of rat weight. Further, the “% reduction (weight loss)” value stood at 24% in data set [2] (sc 0.0078 mg/kg); 73% in data set [2] (sc 0.0156 mg/kg); 64% in data set [2] (sc 0.03125 mg/kg); 65% in data set [2] (sc 0.125 mg/kg); 77% in data set [2] (sc 0.25 mg/kg); 75% in data set [2] (sc 0.5 mg/kg). Moreover, the “% reduction (weight loss)” value in data set [2] (sc 0.625 mg/kg (0.145 μmol/kg)) came to 68%; in data set [2] (sc 0.99 mg/kg), 77%; in data set [2] (sc 4.97 mg/kg), 86%; in data set [2] (sc 24.87 mg/kg), 93%. Besides, the “stool output relative to controls (in words)” value in data set [2] (sc doses of 0.0156 mg/kg to 24.9 mg/kg, P<0.001 for all doses) is reported as “significantly decreased stool output”. Also, in data set [2] (sc, doses ranging from 0.0078 mg/kg to 24.9 mg/kg, all dose levels, P<0.005 to P<0.001), the “reduction in weight loss (in words)” value is “significant reduction in weight loss”.
In the case of `CCNCCCCNCCCCNCCCCNCC` [DEHSPM, N^1, N^14 diethylhomospermine], the “myoelectric activity and transit of the small intestine (in words)” value in the data set with small intestine was “inhibited”.
With `NCCCCNCCCCNCCCCN` [HSPM, homospermine], the “half life (in words)” value in data set [3] is “even longer”. Moreover, in data set [4], the half life is 2-3 weeks.
